According to patent US11385220B2, “Methods for measuring oxidative stress in human body fluids” (CHUNGDO PHARM. CO., LTD, priority 2017, dated 2022):

Assays:
[1] = Crystallization of TBA-containing solution depending on amount of DMSO added (test paper, room temperature); format: physicochemical; settings: test paper immersed in TBA solution, standing at room temperature, increasing amount of DMSO (FIG. 1)
Excerpt: FIG. 1 is an image showing crystallization of a solution containing TBA as a color indicator depending on the amount of DMSO added.

[2] = Solubility of TBA in solvent with or without DMSO; format: physicochemical
Method: In the prior art (Korean Patent Laid-open No. 10-2013-0088623), the amount of TBA added was only 2 to 3%.
In the conventional published Patent No. 10-2013-0088623, the addition of 2 to 3 parts by weight of 1,3-diethyl-2-thiobarbituric acid (TBA) was determined to be an appropriate concentration with respect to 100 parts by weight of distilled water due to the solubility problem of TBA thereof. However, in the present invention, the solubility problem of TBA is solved by adding DMSO. By adding DMSO, 3.5 parts or more by weight of TBA can be dissolved in 100 parts by weight of distilled water or ethanol.
In the present example, DMSO (dimethyl sulfoxide) was added to the TBA solution. […] DMSO is an important solvent that dissolves both polar and nonpolar compounds, and can be used in combination with various organic solvents as well as water.
It was difficult to dissolve TBA in an amount of 3.5 parts by weight or more based on 100 parts by weight of the solvent in accordance with the method of the conventional art disclosed in published Patent No. 10-2013-0088623, and although dissolved, TBA was precipitated during the process.

Compound: CCN1C(=O)CC(=O)N(CC)C1=S [TBA, 1,3-diethyl-2-thiobarbituric acid]
- TBA recrystallization [1]: TBA recrystallization decreased
- TBA dissolved in distilled water ([2]; distilled water, no DMSO): not dissolved in distilled water
- TBA dissolved in ethanol ([2]; ethanol, no DMSO): about 3.5%
- amount of TBA that can be dissolved by the conventional method ([2]; per 100 parts by weight of solvent, no DMSO (method of KR 10-2013-0088623), precipitated during the process): < 3.5 parts by weight
